Laboratory results taken from patent US12534514B2, “Biological and synthetic molecules inhibiting respiratory syncytial virus infection” (Fraunhofer-Gesellschaft zur Förderung der angewandten …, priority 2019, dated 2026).
Square brackets hold non-standard residues; d marks the D form. Tyr(3,5-I2) = N[C@@H](Cc1cc(I)c(O)c(I)c1)C(=O)O; Chg = N[C@H](C(=O)O)C1CCCCC1; Cpa = not defined here

Key:
active RSV = assay: ELISA binding of DNA-peptide construct to RSV; details: peptides coupled to DNA; FIG. 6B
Source text: FIG. 6: Binding of novel DNA-Peptide construct to RSV. […] The single compounds are not in a representative scale. TMB=3,3′,5,5′-Tetramethylbenzidine, HRP=Horseradish peroxidase. […] “Only Anti-RSV antibody” and “Anti-RSV antibody+RSV” represent internal ELISA controls and lack components described in FIG. 6A. The other three samples have all components described in FIG. 6A. Each bar results from the mean values of triplicates±SD.
Binding of newly developed peptides 6 (Ac-[Chg][Cpa]VSTT[Tyr3,5-I2]LPHYFDN-NH2) and 12 (Ac-[Chg][Nle][Chg]STTYLPHYFDN-NH2) to active RSV was verified by enzyme-linked immunosorbent assay (FIG. 6).
FIG. 6A illustrates the scheme of the used ELISA. It has to be noted that the single compounds are not in a representative scale. […] Unspecific binding of RSV and/or RSV-antibody to neutravidin was excluded by using the two other controls.

[1] = tested on: RSV (ATCC VR-26—Long strain); assay: RSV plaque reduction assay on human epithelial cells (HEp-2); type: cell-based
Method: FIG. 1: Scheme of the used inhibition experiments. RSV-plaque reduction assay on human epithelial cells (HEp-2). HEp-2 cells were seeded in 96-well plate 24 h prior to infection (left). Next day, cells were infected with RSV (middle, white arrow). Simultaneously, peptides at concentrations of 20 μM were added to the cells (middle, black arrow). The inhibitory activity was determined 48 post infection by counting viral plaques after immunocytochemical staining using RSV-specific monoclonal antibody (right, black-checked arrow).
The designed peptides were synthesized and screened for their inhibitory activity against RSV in a cell culture-based plaque reduction assay as illustrated in FIG. 1. In detail, Anti-RSV activity was assessed in plaque reduction assay as follows: HEp-2 cells were seeded in a 96-well plate 24 h prior to infection. […] The inhibitory activity was determined 48 h post infection by counting viral plaques after immunocytochemical staining using RSV-specific monoclonal antibody.
Anti-RSV activity was assessed in plaque reduction assay. […] The inhibitory activity was determined 48 h post infection by counting viral plaques after immunocytochemical staining using RSV-specific antibody.
In detail, anti-RSV activity was assessed in plaque reduction assay. […] Viral plaques were counted after immunocytochemical staining using RSV-specific antibody at 48 h after infection. […]

Substance | binding to active RSV (ELISA) (active RSV) | inhibition of infection with RSV on human epithelial cells ([1]; concentration of 20 μM, RSV Long, 48 h post infection, FIG. 3B) | inhibition of infection with RSV on human epithelial cells (screen of truncated peptides, FIG. 2) ([1]; peptides at 20 μM added simultaneously with RSV, plaques counted 48 h post infection)
Ac-[Chg][Nle][Chg]STTYLPHYFDN-NH2 (XXXSTTYLPHYFDN; HELM PEPTIDE1{[ac].[O=C([C@@H](N[*:1])C1CCCCC1)[*:2]].[Nle].[O=C([C@@H](N[*:1])C1CCCCC1)[*:2]].S.T.T.Y.L.P.H.Y.F.D.N.[am]}$$$$V2.0; SMILES CCCC[C@H](NC(=O)[C@@H](NC(C)=O)C1CCCCC1)C(=O)N[C@H](C(=O)N[C@@H](CO)C(=O)N[C@H](C(=O)N[C@H](C(=O)N[C@@H](Cc1ccc(O)cc1)C(=O)N[C@@H](CC(C)C)C(=O)N1CCC[C@H]1C(=O)N[C@@H](Cc1c[nH]cn1)C(=O)N[C@@H](Cc1ccc(O)cc1)C(=O)N[C@@H](Cc1ccccc1)C(=O)N[C@@H](CC(=O)O)C(=O)N[C@@H](CC(N)=O)C(N)=O)[C@@H](C)O)[C@@H](C)O)C1CCCCC1) [peptide 12] | verified |  | 
LVVSTTYLPHYFDN (Ac-LVVSTTYLPHYFDN-NH2) |  | > 50% | able to inhibit infection with RSV
Ac-[Chg][Cpa]VSTT[Tyr3,5-I2]LPHYFDN-NH2 (Ac-[Chg][Cpa]VSTT[Tyr(3,5-I2)]LPHYFDN-NH2; reading uncertain; also: printed as Ac-[Chg][Cpa]VSTT[Tyr3,5-I2]LPHYFDN-NH2) [peptide 6] | verified |  | 
